In patent publication US12528802B2, “Heterocyclic compound” (Takeda Pharmaceutical Company Limited, priority 2019, dated 2026):

The compounds below were run against T1, glucosylceramide synthase (Homo sapiens, UniProt Q16739) (assay: Glucosylceramide synthase (GCS) enzyme assay, microsome fraction, C8 glucosylceramide quantified by Rapidfire MS/MS). Details: test compound 10 μM; 1.7 μM UDP-glucose, 3 μM C8 ceramide; room temperature 60 min; read-out: GCS enzyme inhibitory rate at 10 μM (%) (% of control).
T1 construct: made in house; host or cells: Expi293F cells (transient expression, pcDNA3.3-TOPO vector); microsome fraction used as enzyme source
T1 sequence (Q16739 1-394): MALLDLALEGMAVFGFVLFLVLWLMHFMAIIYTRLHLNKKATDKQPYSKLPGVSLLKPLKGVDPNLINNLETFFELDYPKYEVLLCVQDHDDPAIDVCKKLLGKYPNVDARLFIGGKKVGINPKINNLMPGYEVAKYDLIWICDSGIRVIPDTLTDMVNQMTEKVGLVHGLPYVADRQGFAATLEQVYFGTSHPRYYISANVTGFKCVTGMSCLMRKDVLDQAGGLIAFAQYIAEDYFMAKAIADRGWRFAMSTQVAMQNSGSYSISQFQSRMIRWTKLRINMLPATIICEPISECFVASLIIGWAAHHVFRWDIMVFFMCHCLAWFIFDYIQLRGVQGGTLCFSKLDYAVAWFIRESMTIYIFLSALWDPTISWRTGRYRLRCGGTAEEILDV
Assay type: biochemical
Method in brief: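 Test compound, 10 μM final, was run against human GCS from transfected Expi293F microsome fractions, using substrate solution of 6 μM C8 ceramide (in DOPC liposomes) plus 3.4 μM UDP-glucose, pH 7.5 Tris buffer, 60 min, room temperature. Product C8 glucosylceramide measured by Rapidfire MS/MS against an internal standard, % inhibition referenced to no-enzyme and DMSO wells.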

| Structure (SMILES) | inhibition at 10 µM [%] |
| --- | --- |
| O=C1c2ccnc(-c3ccccc3OCC(F)(F)F)c2CN1c1ccc(C2(O)CC(OCc3ccccc3)C2)cc1 (stereo not drawn) [Example 227, (cis or trans)-2-{4-[3-(benzyloxy)-1-hydroxycyclobutyl]phenyl}-4-[2-(2,2,2-trifluoroethoxy)phenyl]-2,3-dihydro-1H-pyrrolo[3,4-c]pyridin-1-one] | 100 |
| COc1ccccc1-c1nccc2c1CN(c1ccc(F)cc1)C2=O [Example 1, 2-(4-fluorophenyl)-4-(2-methoxyphenyl)-2,3-dihydro-1H-pyrrolo[3,4-c]pyridin-1-one] | 78 |
| O=C1c2ccnc(-c3ccccc3OCC3CC(F)(F)C3)c2CN1c1ccc(F)cc1 [Example 103, 4-{2-[(3,3-difluorocyclobutyl)methoxy]phenyl}-2-(4-fluorophenyl)-2,3-dihydro-1H-pyrrolo[3,4-c]pyridin-1-one] | 98 |
| Cc1cccc(OCC(F)(F)F)c1-c1nccc2c1CN(c1ccc(S(=O)(=O)C(F)F)cc1)C2=O [Example 201, 2-[4-(difluoromethanesulfonyl)phenyl]-4-[2-methyl-6-(2,2,2-trifluoroethoxy)phenyl]-2,3-dihydro-1H-pyrrolo[3,4-c]pyridin-1-one] | 99 |
| CS(=O)(=O)c1ccc(N2Cc3cnn(-c4ccccc4OCC(F)(F)F)c3C2)nc1 [Example 215, 5-[5-(methanesulfonyl)pyridin-2-yl]-1-[2-(2,2,2-trifluoroethoxy)phenyl]-1,4,5,6-tetrahydropyrrolo[3,4-c]pyrazole] | 93 |
| Cc1cc2c(c(-c3c(F)cccc3OCC(F)(F)F)n1)CN(c1ccc(C(C)(C)O)cc1)C2=O [Example 353, 4-[2-fluoro-6-(2,2,2-trifluoroethoxy)phenyl]-2-[4-(2-hydroxypropan-2-yl)phenyl]-6-methyl-2,3-dihydro-1H-pyrrolo[3,4-c]pyridin-1-one] | 100 |
| O=C1c2ccnc(-c3ccncc3OCC(F)(F)F)c2CN1c1ccc(C2(O)CCC2)cc1 [Example 210, 2-[4-(1-hydroxycyclobutyl)phenyl]-4-[3-(2,2,2-trifluoroethoxy)pyridin-4-yl]-2,3-dihydro-1H-pyrrolo[3,4-c]pyridin-1-one] | 99 |
| O=C1c2ccnc(-c3ccccc3OCC(F)(F)F)c2CN1c1ccc(C(O)C(F)(F)F)nc1 (racemic) [Example 249, rac-4-[2-(2,2,2-trifluoroethoxy)phenyl]-2-[6-(2,2,2-trifluoro-1-hydroxyethyl)pyridin-3-yl]-2,3-dihydro-1H-pyrrolo[3,4-c]pyridin-1-one] | 98 |
| O=C1c2ccnc(-c3ccc(F)cc3OCC(F)(F)F)c2CN1c1ccc(C2(O)CCOC2)cn1 (single isomer, unassigned) [Example 300, (R or S)-4-[4-fluoro-2-(2,2,2-trifluoroethoxy)phenyl]-2-[5-(3-hydroxyoxolan-3-yl)pyridin-2-yl]-2,3-dihydro-1H-pyrrolo [3,4-c]pyridin-1-one] | 98 |
| CC(O)c1ccc(N2Cc3c(ccnc3-c3ccccc3OCC(F)(F)F)C2=O)cc1 (racemic) [Example 280, rac-2-[4-(1-hydroxyethyl)phenyl]-4-[2-(2,2,2-trifluoroethoxy)phenyl]-2,3-dihydro-1H-pyrrolo [3,4-c]pyridin-1-one] | 99 |
| O=C1c2ccnc(-c3ccc(F)cc3OCC(F)(F)F)c2CN1c1ccc(C2(O)CC2)cc1 [Example 225, 4-[4-fluoro-2-(2,2,2-trifluoroethoxy)phenyl]-2-[4-(l-hydroxycyclopropyl)phenyl]-2,3-dihydro-1H-pyrrolo[3,4-c]pyridin-1-one] | 94 |
| O=C1c2ccnc(-c3ccc(F)cc3OCC(F)(F)F)c2CN1c1cnn(C2CC2)c1 [Example 94, 2-(1-cyclopropyl-1H-pyrazol-4-yl)-4-[4-fluoro-2-(2,2,2-trifluoroethoxy)phenyl]-2,3-dihydro-1H-pyrrolo[3,4-c]pyridin-1-one] | 97 |
